According to patent US20140315933A1, “CHEMICAL COMPOUNDS” (Pfizer Limited, priority 2013, published 2014):
Counter-ions that a name gives are not always drawn.

Molecular target: T1, URAT-1 transporter (Homo sapiens, UniProt Q96S37)
T1 construct: expressed in transfected cells
Assay: URAT-1 inhibitor activity: [14C]-uric acid uptake into CHO-URAT1(L)GFP#8 (CHO#8) cells, scintillation proximity
Type: cell-based
Description: The nucleotide sequence for the long isoform of URAT1 (NM_144585) was C-terminally fused to that of enhanced green fluorescent protein (eGFP) (hereinafter referred to as URAT1(L)GFP). The combined sequence was codon-optimised and custom synthesized. The synthesized sequence was generated in pDONR221 Gateway entry vector (Invitrogen Life Technologies) prior to cloning in pLenti6.3/V5 Gateway destination vector (Invitrogen Life Technologies).
Lentiviral particles were generated according to ViraPower HiPerform expression system procedure (Invitrogen Life Technologies) and used to transduce CHO cells. Blasticidin selection enabled the generation of a stable clonal pool of cells, confirmed by expression of GFP and V5 epitope. The clonal pools were sorted using fluorescence-activated cell sorting (FACS) on the basis of GFP expression with the gating set at the top 50% of expression into single cells which were subsequently expanded to generate clonal lines. […] This cell line was used for all screening activities and is referred to as CHO-URAT1(L)GFP#8 or CHO#8.
The potency of the compounds of formula (I) as inhibitors of the URAT-1 transporter was determined as follows.
CHO#8 cells were cultured in cell line maintenance flasks in medium consisting of Dulbecco's modified Eagle medium (DMEM) with high glucose and sodium pyruvate (4.5 g of glucose per litre, Invitrogen Life Technologies), supplemented with heat-inactivated foetal bovine serum (FBC, 10% v/v), 1×NEAA (non-essential amino acids) and blasticidin (10 μg/ml). Cultures were grown in 175 cm^2 tissue culture flasks in a humidified incubator at approximately 37° C. in approximately 95% air/5% CO2. Near confluent CHO#8 cell cultures were harvested by trypsinisation, re-suspended in culture medium and the process was repeated once or twice weekly to provide sufficient cells for use.
Assay ready flasks were generated by the same method, except the cells were not cultured in blasticidin.
Assay ready frozen cells were generated by freezing 40,000,000 cells in 1 ml of FBS (without blasticidin) containing 10% DMSO per vial. One vial was sufficient for 5 assay plates. Each vial was thawed rapidly to 37° C., washed and re-suspended in pre-warmed culture medium for seeding onto assay plates.
CHO#8 cells were seeded onto Cytostar™ 96-well plates at a density of […]. The cells were cultured for 1 day at approximately 37° C. in a humidified incubator containing approximately 5% CO2 in air. After approximately 24 hours culture, cells were used for uptake experiments.
On the day of assay, culture medium was removed from the wells and the cells were washed once with 50 μL of chloride-containing buffer (136.7 mM NaCl, 5.36 mM KCl, 0.952 mM CaCl2, 0.441 mM KH2PO4, 0.812 mM MgSO4, 5.6 mM D-glucose, 0.383 mM Na2HPO4.2H2O, 10 mM HEPES, pH 7.4 with NaOH). The cells were pre-incubated with another 50 μL of chloride-containing buffer for one hour at approximately 37° C. in a humidified incubator containing approximately 5% CO2 in air.
Assay compound plates were prepared by diluting the compounds of formula (I) with chloride-free buffer (125 mM Na-gluconate, 4.8 mM K-gluconate, 1.3 mM Ca-gluconate, 1.2 mM KH2PO4, 1.2 mM MgSO4, 5.6 mM D-glucose, 25 mM HEPES, pH 7.4 with NaOH) in 100% DMSO to a final concentration of 1% DMSO. [^14C]-Uric Uric acid working stock was made by addition of radiolabeled compound to a final concentration of 120 nM in chloride-free buffer. In all wells, the final assay concentration of solvent (DMSO) was 0.25%; the final assay concentration of [^14C]-uric acid was 30 nM in chloride-free buffer and the final compound of formula (I) concentrations ranged from 0 to 10 μM.
After pre-incubation, cells were washed with 50 μL of chloride-free buffer and another 50 μL of chloride-free buffer was added. […]

T1 sequence (Q96S37 with tags, fused parts or gaps): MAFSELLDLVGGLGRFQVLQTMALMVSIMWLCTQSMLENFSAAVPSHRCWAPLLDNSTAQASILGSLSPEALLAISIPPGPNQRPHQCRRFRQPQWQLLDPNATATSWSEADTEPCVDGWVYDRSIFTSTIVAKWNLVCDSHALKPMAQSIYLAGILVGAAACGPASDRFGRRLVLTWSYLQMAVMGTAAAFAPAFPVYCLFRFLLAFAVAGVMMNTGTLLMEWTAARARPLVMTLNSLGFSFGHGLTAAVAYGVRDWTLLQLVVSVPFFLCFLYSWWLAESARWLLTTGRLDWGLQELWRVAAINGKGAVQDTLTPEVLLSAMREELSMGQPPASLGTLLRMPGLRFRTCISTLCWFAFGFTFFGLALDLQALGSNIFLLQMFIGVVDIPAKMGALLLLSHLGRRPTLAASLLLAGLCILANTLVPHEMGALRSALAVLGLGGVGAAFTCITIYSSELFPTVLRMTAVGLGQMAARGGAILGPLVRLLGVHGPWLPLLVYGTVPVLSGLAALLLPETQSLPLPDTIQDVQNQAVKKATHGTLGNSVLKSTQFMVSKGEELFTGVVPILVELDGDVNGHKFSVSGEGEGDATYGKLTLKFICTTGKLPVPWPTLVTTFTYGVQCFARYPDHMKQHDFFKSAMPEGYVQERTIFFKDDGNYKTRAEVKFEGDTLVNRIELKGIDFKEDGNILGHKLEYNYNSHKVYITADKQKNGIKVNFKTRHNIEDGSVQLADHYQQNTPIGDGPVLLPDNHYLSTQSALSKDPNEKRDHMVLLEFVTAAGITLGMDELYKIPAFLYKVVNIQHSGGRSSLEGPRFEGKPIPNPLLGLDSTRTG

An IC50 of 5390 nM was found for `N#Cc1cc(F)ccc1Oc1ccc(S(=O)(=O)Nc2ncns2)cc1C#N` [Example 47, 3-cyano-4-(2-cyano-4-fluorophenoxy)-N-(1,2,4-thiadiazol-5-yl)benzenesulfonamide] in this work.

An IC50 of 1960 nM was found for `N#Cc1cc(S(=O)(=O)Nc2ncns2)ccc1Oc1cccc(Cl)c1F` [Example 48, 4-(3-chloro-2-fluorophenoxy)-3-cyano-N-(1,2,4-thiadiazol-5-yl)benzenesulfonamide] in this work.

An IC50 of 1460 nM was found for `N#Cc1cc(S(=O)(=O)Nc2ncns2)ccc1Oc1cccc(F)c1F` [Example 49, 3-cyano-4-(2,3-difluorophenoxy)-N-(1,2,4-thiadiazol-5-yl)benzenesulfonamide] in this work.

An IC50 of 2550 nM was found for `N#Cc1cc(S(=O)(=O)Nc2ncns2)ccc1Oc1cc(F)ccc1F` [Example 50, 3-cyano-4-(2,5-difluorophenoxy)-N-(1,2,4-thiadiazol-5-yl)benzenesulfonamide] in this work.

An IC50 of 2140 nM was found for `N#Cc1ccc(Oc2ccc(S(=O)(=O)Nc3ncns3)cc2C#N)c(F)c1` [Example 51, 3-cyano-4-(4-cyano-2-fluorophenoxy)-N-(1,2,4-thiadiazol-5-yl)benzenesulfonamide] in this work.

An IC50 of 650 nM was found for `N#Cc1cc(S(=O)(=O)Nc2ncns2)ccc1Oc1ccc(Cl)cc1F` [Example 52, 4-(4-chloro-2-fluorophenoxy)-3-cyano-N-(1,2,4-thiadiazol-5-yl)benzenesulfonamide] in this work.

An IC50 of 5240 nM was found for `N#Cc1cc(S(=O)(=O)Nc2ncns2)ccc1Oc1cccc(C(F)(F)F)c1F` [Example 53, 3-cyano-4-[2-fluoro-3-(trifluoromethyl)phenoxy]-N-(1,2,4-thiadiazol-5-yl)benzenesulfonamide] in this work.

An IC50 of 2850 nM was found for `N#Cc1cc(S(=O)(=O)Nc2ncns2)ccc1Oc1cccc(C(F)(F)F)c1` [Example 54, 3-cyano-N-(1,2,4-thiadiazol-5-yl)-4-[3-(trifluoromethyl)phenoxy]benzene sulfonamide] in this work.

An IC50 of 590 nM was found for `N#Cc1cc(S(=O)(=O)Nc2ncns2)ccc1Oc1cc(Cl)ccc1Cl` [Example 55, 3-cyano-4-(2,5-dichlorophenoxy)-N-(1,2,4-thiadiazol-5-yl)benzenesulfonamide] in this work.

An IC50 of 2120 nM was found for `CCc1cc(F)ccc1Oc1ccc(S(=O)(=O)Nc2ncns2)c(C#N)c1` [Example 56, 2-cyano-4-(2-ethyl-4-fluorophenoxy)-N-(1,2,4-thiadiazol-5-yl)benzenesulfonamide] in this work.

An IC50 of 517 nM was found for `[2H]C([2H])([2H])Oc1cc(Cl)ccc1Oc1ccc(S(=O)(=O)Nc2ncns2)cc1C#N` [Example 57] in this work.

An IC50 greater than 10000 nM was found for `Cn1cc(NS(=O)(=O)c2ccc(Oc3ccc(C#N)c(Cl)c3)c(C#N)c2)cn1` [Example 58, 4-(3-chloro-4-cyanophenoxy)-3-cyano-N-(1-methyl-1H-pyrazol-4-yl)benzenesulfonamide] in this work.

An IC50 greater than 10000 nM was found for `Cc1cc(NS(=O)(=O)c2ccc(Oc3ccc(C#N)c(Cl)c3)c(C#N)c2)on1` [Example 59, 4-(3-chloro-4-cyanophenoxy)-3-cyano-N-(3-methyl-1,2-oxazol-5-yl)benzenesulfonamide] in this work.

An IC50 greater than 8780 nM was found for `O=S(=O)(Nc1ncc(F)s1)c1ccc(Oc2ccc(Cl)cc2OC(F)(F)F)c(F)c1` [Example 60, 4-[4-chloro-2-(trifluoromethoxy)phenoxy]-3-fluoro-N-(5-fluoro-1,3-thiazol-2-yl)benzenesulfonamide] in this work.

An IC50 greater than 10000 nM was found for `O=S(=O)(Nc1ncc(F)s1)c1ccc(Oc2ccc(Cl)cc2C(F)(F)F)c(F)c1` [Example 61, 4-[4-chloro-2-(trifluoromethyl)phenoxy]-3-fluoro-N-(5-fluoro-1,3-thiazol-2-yl)benzenesulfonamide] in this work.

An IC50 of 1440 nM was found for `CC(C)c1cccc(Oc2ccc(S(=O)(=O)Nc3ncns3)cc2Cl)c1` [Example 63, 3-chloro-4-[3-(propan-2-yl)phenoxy]-N-(1,2,4-thiadiazol-5-yl)benzenesulfonamide diethylamine salt] in this work.

An IC50 of 8010 nM was found for `N#Cc1ccc(Oc2ccc(S(=O)(=O)Nc3ncns3)cc2Cl)cc1` [Example 64, 3-chloro-4-(4-cyanophenoxy)-N-(1,2,4-thiadiazol-5-yl)benzenesulfonamide diethylamine salt] in this work.

An IC50 of 1490 nM was found for `O=S(=O)(Nc1ncns1)c1ccc(Oc2cccc(C(F)(F)F)c2F)c(Cl)c1` [Example 65, 3-chloro-4-[2-fluoro-3-(trifluoromethyl)phenoxy]-N-(1,2,4-thiadiazol-5-yl)benzenesulfonamide diethylamine salt] in this work.

An IC50 of 5810 nM was found for `CC(C)c1cccc(Oc2ccc(S(=O)(=O)Nc3nccs3)cc2F)c1` [Example 66, 3-fluoro-4-[3-(propan-2-yl)phenoxy]-N-(1,3-thiazol-2-yl)benzenesulfonamide] in this work.

An IC50 greater than 7580 nM was found for `CC(C)c1cccc(Oc2cc(F)c(S(=O)(=O)Nc3nccs3)cc2F)c1` [Example 67, 2,5-difluoro-4-[3-(propan-2-yl)phenoxy]-N-(1,3-thiazol-2-yl)benzenesulfonamide] in this work.

An IC50 greater than 8470 nM was found for `CC(C)c1cccc(Oc2cc(F)c(S(=O)(=O)Nc3ncc(F)s3)cc2F)c1` [Example 68, 2,5-difluoro-N-(5-fluoro-1,3-thiazol-2-yl)-4-[3-(propan-2-yl)phenoxy]benzenesulfonamide] in this work.

An IC50 greater than 6340 nM was found for `CC(C)c1cccc(Oc2ccc(S(=O)(=O)Nc3ncc(F)s3)cc2F)c1` [Example 69, 3-fluoro-N-(5-fluoro-1,3-thiazol-2-yl)-4-[3-(propan-2-yl)phenoxy]benzenesulfonamide] in this work.

An IC50 greater than 10000 nM was found for `O=S(=O)(Nc1nccs1)c1ccc(Oc2ccc(Cl)cc2OC(F)(F)F)c(F)c1` [Example 70, 4-[4-chloro-2-(trifluoromethoxy)phenoxy]-3-fluoro-N-(1,3-thiazol-2-yl)benzenesulfonamide] in this work.

An IC50 greater than 10000 nM was found for `O=S(=O)(Nc1nccs1)c1ccc(Oc2ccc(Cl)cc2C(F)(F)F)c(F)c1` [Example 71, 4-[4-chloro-2-(trifluoromethyl)phenoxy]-3-fluoro-N-(1,3-thiazol-2-yl)benzenesulfonamide] in this work.

An IC50 greater than 10000 nM was found for `CCc1cc(F)ccc1Oc1ccc(S(=O)(=O)Nc2nccs2)c(F)c1` [Example 72, 4-(2-ethyl-4-fluorophenoxy)-2-fluoro-N-(1,3-thiazol-2-yl)benzenesulfonamide] in this work.

An IC50 greater than 10000 nM was found for `CC(C)c1cccc(Oc2ccc(S(=O)(=O)Nc3nccs3)c(F)c2)c1` [Example 73, 2-fluoro-4-[3-(propan-2-yl)phenoxy]-N-(1,3-thiazol-2-yl)benzenesulfonamide] in this work.

An IC50 greater than 3440 nM was found for `Cc1cc(Oc2ccc(S(=O)(=O)Nc3nccs3)cc2F)ccc1F` [Example 74, 3-fluoro-4-(4-fluoro-3-methylphenoxy)-N-(1,3-thiazol-2-yl)benzenesulfonamide] in this work.

An IC50 greater than 10000 nM was found for `O=S(=O)(Nc1nccs1)c1ccc(Oc2ccccc2Br)c(F)c1` [Example 75, 4-(2-bromophenoxy)-3-fluoro-N-(1,3-thiazol-2-yl)benzenesulfonamide] in this work.

An IC50 of 93 nM was found for `Cc1nocc1NS(=O)(=O)c1ccc(Oc2ccc(C#N)c(Cl)c2)c(C#N)c1` [Example 76, 4-(3-chloro-4-cyanophenoxy)-3-cyano-N-(3-methyl-1,2-oxazol-4-yl)benzenesulfonamide] in this work.

An IC50 of 160 nM was found for `CCc1cc(F)ccc1Oc1ccc(S(=O)(=O)Nc2cscn2)cc1I` [Example 77, 4-(2-ethyl-4-fluorophenoxy)-3-iodo-N-(1,3-thiazol-4-yl)benzenesulfonamide] in this work.

An IC50 of 165 nM was found for `CCc1cc(F)ccc1Oc1cc(F)c(S(=O)(=O)Nc2cscn2)cc1Br` [Example 78, 5-bromo-4-(2-ethyl-4-fluorophenoxy)-2-fluoro-N-(1,3-thiazol-4-yl)benzenesulfonamide] in this work.

An IC50 greater than 10000 nM was found for `COc1cc(Cl)ccc1Oc1ccc(S(=O)(=O)Nc2cscn2)c(OC)c1` [Example 79, 4-(4-chloro-2-methoxyphenoxy)-2-methoxy-N-(1,3-thiazol-4-yl)benzenesulfonamide diethylamine salt] in this work.
